Test [1] has as its target T1, Cytoplasmic tyrosine-protein kinase BMX (Homo sapiens) (UniProt P51813).
T1 sequence (whole entry): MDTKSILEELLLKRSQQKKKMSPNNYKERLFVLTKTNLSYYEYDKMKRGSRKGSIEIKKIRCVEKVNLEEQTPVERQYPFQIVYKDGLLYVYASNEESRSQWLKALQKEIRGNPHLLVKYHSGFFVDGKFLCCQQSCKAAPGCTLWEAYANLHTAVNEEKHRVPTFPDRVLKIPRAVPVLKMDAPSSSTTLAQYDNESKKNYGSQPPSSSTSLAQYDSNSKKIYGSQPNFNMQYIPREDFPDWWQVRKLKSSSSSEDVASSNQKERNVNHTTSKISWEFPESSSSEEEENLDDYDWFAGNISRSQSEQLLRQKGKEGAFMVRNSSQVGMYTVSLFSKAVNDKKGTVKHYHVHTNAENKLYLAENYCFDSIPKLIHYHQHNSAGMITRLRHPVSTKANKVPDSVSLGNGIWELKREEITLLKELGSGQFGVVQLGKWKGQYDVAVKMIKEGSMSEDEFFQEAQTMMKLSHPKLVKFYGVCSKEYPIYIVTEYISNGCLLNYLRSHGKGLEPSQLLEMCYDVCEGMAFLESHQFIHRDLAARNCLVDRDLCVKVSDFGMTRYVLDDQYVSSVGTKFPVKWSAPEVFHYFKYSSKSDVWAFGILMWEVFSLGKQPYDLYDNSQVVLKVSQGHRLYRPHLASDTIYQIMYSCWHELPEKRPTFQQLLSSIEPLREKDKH
The experiment in a line: Inhibition of human BMX/ETK using poly[Glu:Tyr] (4:1) as substrate at 1 uM in presence of 32P-ATP by Hotspot assay relative to control; values are per cent of control.

Test [2] has as its target SRSF protein kinase 1 (Homo sapiens) (UniProt Q96SB4). The experiment in a line: Residual activity of human SRPK1 using GRSRSRSRSR as substrate at 1 uM in presence of 32P-ATP by Hotspot assay relative to control.
Test [3] concerns the target Serine/threonine-protein kinase PLK1 (Homo sapiens) (UniProt P53350). The test can be described thus: Inhibition of human PLK1 using casein as substrate at 1 uM in presence of 32P-ATP by Hotspot assay relative to control; values are per cent of control.
Test [4] concerns the target T2, Mitogen-activated protein kinase kinase kinase 3 (Homo sapiens) (UniProt Q99759).
T2 sequence (whole entry): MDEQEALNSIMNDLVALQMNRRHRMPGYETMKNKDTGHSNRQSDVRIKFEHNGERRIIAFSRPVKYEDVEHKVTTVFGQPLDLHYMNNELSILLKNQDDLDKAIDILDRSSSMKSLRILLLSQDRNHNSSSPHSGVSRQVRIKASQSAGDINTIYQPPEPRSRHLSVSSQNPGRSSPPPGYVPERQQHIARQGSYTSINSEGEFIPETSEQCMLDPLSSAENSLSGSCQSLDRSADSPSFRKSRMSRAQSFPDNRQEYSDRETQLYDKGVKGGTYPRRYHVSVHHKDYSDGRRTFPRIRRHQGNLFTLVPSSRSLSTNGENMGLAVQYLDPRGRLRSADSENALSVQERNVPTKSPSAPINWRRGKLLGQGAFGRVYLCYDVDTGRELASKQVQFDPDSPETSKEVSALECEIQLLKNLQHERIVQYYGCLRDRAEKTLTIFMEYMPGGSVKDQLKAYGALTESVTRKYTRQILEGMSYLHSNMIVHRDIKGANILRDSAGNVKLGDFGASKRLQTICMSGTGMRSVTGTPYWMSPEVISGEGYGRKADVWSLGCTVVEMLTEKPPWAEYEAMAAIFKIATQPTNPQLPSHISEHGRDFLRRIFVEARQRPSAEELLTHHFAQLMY
The test can be described thus: Inhibition of human MEKK3 using myelin basic protein as substrate at 1 uM in presence of 32P-ATP by Hotspot assay relative to control; values are per cent of control.

For test [5], the target named is Proto-oncogene tyrosine-protein kinase receptor Ret (Homo sapiens) (UniProt P07949). The test can be described thus: Inhibition of human RET using RRRRRRRRRRRVYSTDYYRLFNPS as substrate at 1 uM in presence of 32P-ATP by Hotspot assay relative to control.
In test [6] the target is T3, Serine/threonine-protein kinase haspin (Homo sapiens) (UniProt Q8TF76).
T3 sequence (whole entry): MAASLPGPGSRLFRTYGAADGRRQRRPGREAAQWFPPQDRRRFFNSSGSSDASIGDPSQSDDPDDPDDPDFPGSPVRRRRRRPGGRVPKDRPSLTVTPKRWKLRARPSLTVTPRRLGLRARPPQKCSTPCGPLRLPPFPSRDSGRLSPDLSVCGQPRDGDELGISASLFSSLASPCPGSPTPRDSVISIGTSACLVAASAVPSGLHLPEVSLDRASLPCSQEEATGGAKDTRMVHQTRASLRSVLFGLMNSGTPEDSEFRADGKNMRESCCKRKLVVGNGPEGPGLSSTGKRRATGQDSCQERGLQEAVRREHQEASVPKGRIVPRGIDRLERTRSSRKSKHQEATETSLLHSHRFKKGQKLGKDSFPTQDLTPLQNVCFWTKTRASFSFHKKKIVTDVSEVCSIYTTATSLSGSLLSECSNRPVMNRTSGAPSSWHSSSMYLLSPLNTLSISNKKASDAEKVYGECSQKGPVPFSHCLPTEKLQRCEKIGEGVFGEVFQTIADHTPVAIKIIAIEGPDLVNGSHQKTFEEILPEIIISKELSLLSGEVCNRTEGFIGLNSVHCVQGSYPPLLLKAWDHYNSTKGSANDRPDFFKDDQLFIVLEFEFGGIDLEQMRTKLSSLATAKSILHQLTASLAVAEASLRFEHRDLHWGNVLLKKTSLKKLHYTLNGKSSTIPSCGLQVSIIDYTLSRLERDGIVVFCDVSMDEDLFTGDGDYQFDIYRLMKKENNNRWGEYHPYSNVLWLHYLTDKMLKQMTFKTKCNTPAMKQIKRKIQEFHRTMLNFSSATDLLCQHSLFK
The test can be described thus: Inhibition of human Haspin using histone H3 as substrate at 1 uM in presence of 32P-ATP by Hotspot assay relative to control; values are per cent of control.

For test [7], the target named is Glycogen synthase kinase-3 beta (Homo sapiens) (UniProt P49841). The test can be described thus: Inhibition of human GSK3b using YRRAAVPPSPSLSRHSSPHQ(pS)EDEEE as substrate at 1 uM in presence of 32P-ATP by Hotspot assay relative to control; values are per cent of control.
The target in test [8] is Fibroblast growth factor receptor 3 (Homo sapiens) (UniProt P22607). The test can be described thus: Inhibition of human FGFR3 using poly[Glu:Tyr] (4:1) as substrate at 1 uM in presence of 32P-ATP by Hotspot assay relative to control; values are per cent of control.
Sequence of Fibroblast growth factor receptor 3 (Homo sapiens) (P22607 23-806 limits assumed): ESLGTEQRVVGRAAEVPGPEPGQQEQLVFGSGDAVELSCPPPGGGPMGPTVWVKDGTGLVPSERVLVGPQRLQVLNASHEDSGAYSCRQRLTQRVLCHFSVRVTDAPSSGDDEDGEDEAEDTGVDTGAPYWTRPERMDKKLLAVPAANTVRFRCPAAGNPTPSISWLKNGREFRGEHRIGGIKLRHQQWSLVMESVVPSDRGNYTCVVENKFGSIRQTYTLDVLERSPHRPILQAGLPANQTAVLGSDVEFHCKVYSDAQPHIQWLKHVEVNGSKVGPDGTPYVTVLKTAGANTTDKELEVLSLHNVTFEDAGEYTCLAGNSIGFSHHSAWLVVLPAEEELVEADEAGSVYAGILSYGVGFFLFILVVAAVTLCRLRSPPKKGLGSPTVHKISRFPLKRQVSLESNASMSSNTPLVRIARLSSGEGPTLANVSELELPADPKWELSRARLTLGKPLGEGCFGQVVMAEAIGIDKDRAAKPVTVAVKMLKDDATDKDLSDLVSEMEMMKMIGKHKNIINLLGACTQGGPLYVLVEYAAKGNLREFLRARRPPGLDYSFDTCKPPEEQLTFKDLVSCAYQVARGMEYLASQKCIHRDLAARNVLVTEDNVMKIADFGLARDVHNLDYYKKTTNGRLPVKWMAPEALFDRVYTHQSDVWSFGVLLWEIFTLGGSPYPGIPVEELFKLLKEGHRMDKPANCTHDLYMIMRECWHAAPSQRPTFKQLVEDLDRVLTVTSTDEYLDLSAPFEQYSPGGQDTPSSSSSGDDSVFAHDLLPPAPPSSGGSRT

Sequence of Proto-oncogene tyrosine-protein kinase receptor Ret (Homo sapiens) (P07949 whole entry): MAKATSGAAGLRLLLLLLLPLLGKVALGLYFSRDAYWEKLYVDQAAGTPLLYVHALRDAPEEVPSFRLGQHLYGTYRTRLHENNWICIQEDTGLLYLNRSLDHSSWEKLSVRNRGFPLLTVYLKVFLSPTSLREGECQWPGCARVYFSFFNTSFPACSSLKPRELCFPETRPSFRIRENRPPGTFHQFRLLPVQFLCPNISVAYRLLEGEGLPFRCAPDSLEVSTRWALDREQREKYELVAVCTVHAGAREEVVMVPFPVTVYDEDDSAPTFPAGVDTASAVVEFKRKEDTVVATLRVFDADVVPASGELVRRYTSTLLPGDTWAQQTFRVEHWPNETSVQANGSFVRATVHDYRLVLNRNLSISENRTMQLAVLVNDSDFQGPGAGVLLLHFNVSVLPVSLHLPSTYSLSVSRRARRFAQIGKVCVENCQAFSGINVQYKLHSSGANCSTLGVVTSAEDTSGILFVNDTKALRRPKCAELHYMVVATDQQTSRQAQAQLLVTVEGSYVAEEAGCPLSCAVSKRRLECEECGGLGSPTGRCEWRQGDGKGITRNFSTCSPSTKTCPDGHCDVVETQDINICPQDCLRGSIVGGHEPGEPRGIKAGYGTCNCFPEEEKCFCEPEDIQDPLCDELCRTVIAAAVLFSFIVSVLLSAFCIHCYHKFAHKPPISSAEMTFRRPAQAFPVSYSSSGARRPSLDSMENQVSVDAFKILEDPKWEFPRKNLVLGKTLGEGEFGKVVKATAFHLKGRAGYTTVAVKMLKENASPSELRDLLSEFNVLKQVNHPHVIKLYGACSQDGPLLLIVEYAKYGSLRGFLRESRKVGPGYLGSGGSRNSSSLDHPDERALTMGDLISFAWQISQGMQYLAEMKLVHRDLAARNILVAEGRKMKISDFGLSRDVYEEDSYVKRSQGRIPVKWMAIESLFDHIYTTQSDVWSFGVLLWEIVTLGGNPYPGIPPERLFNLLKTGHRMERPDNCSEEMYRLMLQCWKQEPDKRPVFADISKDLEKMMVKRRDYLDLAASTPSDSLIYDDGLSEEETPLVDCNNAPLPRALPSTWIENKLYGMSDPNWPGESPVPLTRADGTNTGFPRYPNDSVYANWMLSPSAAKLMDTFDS
Sequence of Serine/threonine-protein kinase PLK1 (Homo sapiens) (P53350 whole entry): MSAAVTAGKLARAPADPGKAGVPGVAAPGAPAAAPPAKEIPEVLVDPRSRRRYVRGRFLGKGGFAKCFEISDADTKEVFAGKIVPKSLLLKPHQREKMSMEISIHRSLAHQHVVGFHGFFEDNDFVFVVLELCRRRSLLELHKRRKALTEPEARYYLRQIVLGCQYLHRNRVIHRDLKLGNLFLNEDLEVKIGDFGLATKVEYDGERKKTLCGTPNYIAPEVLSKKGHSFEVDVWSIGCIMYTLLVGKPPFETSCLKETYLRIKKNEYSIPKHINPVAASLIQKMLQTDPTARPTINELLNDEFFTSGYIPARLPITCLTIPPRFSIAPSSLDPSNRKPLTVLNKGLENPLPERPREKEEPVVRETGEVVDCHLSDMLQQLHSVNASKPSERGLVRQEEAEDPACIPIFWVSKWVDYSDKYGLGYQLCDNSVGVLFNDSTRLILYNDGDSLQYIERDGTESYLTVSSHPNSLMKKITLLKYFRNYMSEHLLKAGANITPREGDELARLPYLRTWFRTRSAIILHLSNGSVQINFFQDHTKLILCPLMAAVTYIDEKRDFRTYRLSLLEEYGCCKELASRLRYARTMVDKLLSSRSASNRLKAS
Sequence of SRSF protein kinase 1 (Homo sapiens) (Q96SB4 whole entry): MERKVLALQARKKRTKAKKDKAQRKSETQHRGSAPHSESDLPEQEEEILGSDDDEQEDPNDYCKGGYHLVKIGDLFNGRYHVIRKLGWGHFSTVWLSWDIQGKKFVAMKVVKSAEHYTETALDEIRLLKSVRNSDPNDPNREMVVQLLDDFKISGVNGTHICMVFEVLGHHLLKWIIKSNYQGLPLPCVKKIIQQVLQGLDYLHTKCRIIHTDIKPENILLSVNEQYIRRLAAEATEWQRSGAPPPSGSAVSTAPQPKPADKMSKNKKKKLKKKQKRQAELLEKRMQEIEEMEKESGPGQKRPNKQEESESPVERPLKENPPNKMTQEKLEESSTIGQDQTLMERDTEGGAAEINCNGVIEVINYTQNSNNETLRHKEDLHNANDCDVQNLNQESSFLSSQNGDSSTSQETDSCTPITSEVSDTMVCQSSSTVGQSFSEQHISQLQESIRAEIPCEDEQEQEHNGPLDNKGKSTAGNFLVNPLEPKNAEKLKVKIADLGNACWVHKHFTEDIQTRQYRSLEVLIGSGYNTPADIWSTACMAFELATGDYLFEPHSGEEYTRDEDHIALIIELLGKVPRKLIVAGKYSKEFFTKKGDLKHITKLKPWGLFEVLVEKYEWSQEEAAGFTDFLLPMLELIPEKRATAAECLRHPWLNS
Sequence of Glycogen synthase kinase-3 beta (Homo sapiens) (P49841 whole entry, looked up): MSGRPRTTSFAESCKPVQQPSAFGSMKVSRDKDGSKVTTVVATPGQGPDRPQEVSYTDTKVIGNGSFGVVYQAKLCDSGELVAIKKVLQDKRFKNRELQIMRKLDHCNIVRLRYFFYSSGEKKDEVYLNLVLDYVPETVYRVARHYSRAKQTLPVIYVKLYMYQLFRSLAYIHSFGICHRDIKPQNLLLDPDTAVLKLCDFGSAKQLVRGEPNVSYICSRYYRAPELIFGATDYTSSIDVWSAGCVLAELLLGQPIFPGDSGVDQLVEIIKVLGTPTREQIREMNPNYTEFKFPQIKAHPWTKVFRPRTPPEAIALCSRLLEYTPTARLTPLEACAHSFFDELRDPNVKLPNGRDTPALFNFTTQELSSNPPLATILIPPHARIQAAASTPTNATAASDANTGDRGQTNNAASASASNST

The inhibition is the drop in the measured response relative to a control, in per cent. In the case of `Cc1cc(-c2cnc(N)c3c(-c4ccc5scnc5c4)csc23)n(C)n1`, the residual activity in test [1] was determined as 91.1%; in test [2], 95.3%; in test [3], 98.6%; in test [4], 95%; in test [6], 95.5%; in test [7] it was 93.2%. In test [8], the residual activity was 65%. For the same molecule, the inhibition in test [5] turned out to be 30%.

With `CC(C)S(=O)(=O)c1ccc2nccc(Nc3ccc4scnc4c3)c2c1`, the residual activity in test [1] was found to be 69.9%; in test [2], 104%; in test [3], 95.4%; in test [4], 92.3%; in test [6], 86.2%; in test [7], 83.8%. For the same molecule, the residual activity in test [8] came to 94.3%. Moreover, the inhibition in test [5] worked out at 48.1%.

As to `CNC(=O)c1ccc2c(c1)ncn2-c1ccc(CC(=O)OC(C)(C)C)cc1`, the residual activity in test [1] stood at 83.5%; in test [2], 112%; in test [3], 103%; in test [4], 96%; in test [6] it was 98.1%; in test [7], 65.2%. Further, the residual activity in test [8] is 65.3%. Also, the inhibition in test [5] worked out at 92.2%.

For the origin of these results see ChEMBL document CHEMBL5649166, “RIP3 induces apoptosis independent of pronecrotic kinase activity” (Mol Cell, 2014).
